From the NIST ThermoML archive (doi:10.1016/j.jct.2019.06.007)
± gives the expanded uncertainty stated by the source.

Details: Crystal; DTA

Normal melting temperature: 159.90 ± 1.1 °C
Structure (SMILES): Cn1c(=O)c2c(ncn2CC(O)CO)n(C)c1=O (stereo unspecified)
